Assay results: patent US7163933B2, “Treating agent for Paget's disease of bone” (Teijin Limited, priority 2002, dated 2007)

Columns and labels:
TAFII-17 gene = TAFII-17 gene expression (RT-PCR, band density vs β-actin) in bone marrow mononuclear cells from patients with Paget's disease of bone; type: cell-based, human
From the text: (§1) Mononuclear cells were fractionated from bone marrow cells of healthy normal adults and patients with Paget's disease of bone according to a method of Kurihara et al. (Endocrinology, vol. 126, 2733–2741 (1990) and Journal of Clinical Investigation, vol. 105, 606–614 (2000)). Briefly, bone marrow cells were obtained from normal adults and patients with Paget's disease of bone, a mononuclear cell fraction was collected by Hypaque-Ficoll density gradient centrifugation, the cell fraction was washed with α-Minimal Essential Media (α-MEM, GIBCO BRL; Grand Island, N.Y.) 3 times, and the cells were dispersed in α-MEM containing 10% fetal bovine serum (GIBCO BRL; Grand Island, N.Y.). This mononuclear cell suspension was seeded on 100-mm tissue culture plates, the culture plates were kept for 90 minutes at 37° C. in a 5% CO2-air atmosphere, and the non-adherent cells were collected.
Mononuclear cells were prepared from bone marrow collected from patients with Paget's disease of bone according to a method described in Example 1. The collected mononuclear cells were dispersed in an α-MEM culture medium containing 20% horse serum in such a manner that the concentration became 3.3×10^5 cells/ml, seeded on 35-mm tissue culture plates at 3 ml/plate, and cultured for 12 hr at 37° C. in an incubator of 5% CO2-air in the presence of 10^−10 M 1α, 25-dihydroxyvitamin D3 and 10^−8 M Compound 11 (23S isomer) of the present invention singly, or in the presence of 10^−10 M 1α, 25-dihydroxyvitamin D3 and 10^−8 M Compound 11 (23S isomer) together. Subsequently, the cells were collected by centrifuge, RNA was extracted according to a routine procedure after the addition of 1 ml of an RNAzol B solution, and the resulting RNA was converted into cDNA by using a reverse transcriptase. The TAFII-17 gene was subjected to PCR reaction of 35 cycles each consisting of 1 min at 94° C., 1 min at 55° C. and 1 min at 72° C. using 5′-[…]-3′ (SEQ ID NO: 14) (sense) and 5′-[…]-3′(SEQ ID NO: 15) (antisense) as the primers. The PCR products were fractionated by electrophoresis using 2% agarose gel. As a house-keeping gene, β-actin was subjected to PCR reaction in the same manner, and the PCR products were fractionated by electrophoresis using 2% agarose gel. The densities of the bands of the TAFII-17 gene and the β-actin gene were determined by an image analyzer.

[1] = system: bone marrow cells from patients with Paget's disease of bone; test: Osteoclast formation in bone marrow cultures from patients with Paget's disease of bone (23C6-positive cells with three or more nuclei); type: cell-based, human
From the text: as §1
Mononuclear cells were fractionated from bone marrow cells of patients with Paget's disease of bone as described in Example 1. The collected mononuclear cells were dispersed in an α-MEM culture medium containing 20% horse serum in such a manner that the concentration became 10^6 cells/ml, and seeded on a 96-well multiplate at 100 μl/well. The suppression effect of Compound 11 (23S isomer) on osteoclast formation in the bone marrow cells of patients with Paget's disease of bone induced by 1α,25-dihydroxyvitamin D3 was evaluated as follows. Into each well, 1α,25-dihydroxyvitamin D3 of various concentrations, Compound 11 (23S isomer) of various concentrations, or a combination of 10^−10 M 1α,25-dihydroxyvitamin D3 and Compound 11 (23S isomer) of various concentrations was added. The culture medium was replaced two times a week, and culture was continued for 3 weeks at 37° C. in an incubator of 5% CO2-air. After the culture, the culture product was subjected to 23C6 antibody (antibody; gift from Dr. Michael A. Horton, Rayne Institute, Bone and Mineral Center, London, United Kingdom) alkaline phosphatase dyeing (VECTASTAIN-ABC-AP kit; Vector Laboratories, Burlingame, Calif.), and the nuclei were dyed with methyl green. Cells that were positive to 23C6 antibody and had three or more nuclei were determined as osteoclast, and the number of all osteoclasts in each well was counted.

[2] = system: human 25-hydroxyvitamin D3-24-hydroxylase gene promoter; test: 25-hydroxyvitamin D3-24-hydroxylase (24-OHase) luciferase reporter assay in NIH3T3 cells; type: cell-based, mouse
From the text: The promoter region of the human 25-hydroxyvitamin D3-24-hydroxylase gene(−186/−5), which contains two vitamin D responsive elements (VDRE) was cloned into a luciferase reporter vector pGL3-Basic Vector (Promega; Madison, Wis.). This plasmid construct was cotransfected with a β-galactosidase expression plasmid into pcDNA3.1-Neo-hTAFII-17-CDS (Example 2) or its empty vector-transfected mouse fibroblastic cell line NIH3T3 cells by lipofection (LipofectAMINE; GIBCO BRL; Grand Island, N.Y.). Sixteen hours after the transfection, vehicle (0.1% ethanol) or 1α,25-(OH)2D3 (10^−10 to 10^−8 M) was added. Forty-eight hours later, the cells were harvested in the cell lysate solution provided with the luciferase assay kit (Promega; Madison, Wis.). The luciferase activities of the cell lysates were measured with the luciferase assay kit according to the manufacturer's instructions and was standardized with the β-galactosidase activities of the same cell lysates determined with a β-galactosidase enzyme assay system (Promega; Madison, Wis.).

[3] = test substance alone at 10^−7 M, 3 weeks culture
[4] = test substance alone at 10^−8 M, 3 weeks culture
[5] = test substance alone at 10^−9 M, 3 weeks culture
[6] = test substance alone at 10^−10 M, 3 weeks culture
[7] = test substance alone at 10^−11 M, 3 weeks culture

C=C1C[C@H](C[C@H](C)[C@H]2CC[C@H]3/C(=C/C=C4/C[C@@H](O)C[C@H](O)C4=C)CCC[C@]23C)OC1=O (single isomer, unassigned) [Compound 11 (23S isomer)]
expression of TAFII-17 gene (in words) (TAFII-17 gene; 10^−8 M Compound 11 (23S isomer) added alone): remarkably suppressed
TAFII-17/β-actin (TAFII-17 gene; 10^−8 M Compound 11 (23S isomer) singly, 12 hr culture): 6.82 arbitrary units
TAFII-17/β-actin (TAFII-17 gene; 10^−8 M Compound 11 (23S isomer) together with 10^−10 M 1α,25-(OH)2D3, 12 hr culture): 46.89 arbitrary units
expression of TAFII-17 gene accelerated by 10^−10 M 1α,25-(OH)2D3 (in words) (TAFII-17 gene; addition of 10^−8 M Compound 11 (23S isomer)): strongly suppressed
osteoclast formation (average number of cells ± S.D.) ([1]; 10^−6 M compound 11 (23S isomer) + 10^−10 M 1α,25-dihydroxyvitamin D3, 3 weeks culture): 1 ± 1 cells
osteoclast formation (average number of cells ± S.D.) ([1]; 10^−7 M compound 11 (23S isomer) + 10^−10 M 1α,25-dihydroxyvitamin D3, 3 weeks culture): 14 ± 1 cells
osteoclast formation (average number of cells ± S.D.) ([1]; 10^−8 M compound 11 (23S isomer) + 10^−10 M 1α,25-dihydroxyvitamin D3, 3 weeks culture): 63 ± 5 cells
osteoclast formation (average number of cells ± S.D.) ([1]; 10^−9 M compound 11 (23S isomer) + 10^−10 M 1α,25-dihydroxyvitamin D3, 3 weeks culture): 125 ± 5 cells
osteoclast formation (average number of cells ± S.D.) ([1]; 10^−10 M compound 11 (23S isomer) + 10^−10 M 1α,25-dihydroxyvitamin D3, 3 weeks culture): 155 ± 6 cells
osteoclast formation (average number of cells ± S.D.) ([1]; 10^−11 M compound 11 (23S isomer) + 10^−10 M 1α,25-dihydroxyvitamin D3, 3 weeks culture): 170 ± 13 cells
osteoclast formation induced by 10^−10 M 1α,25-dihydroxyvitamin D3 (in words) ([1]; Compound 11 (23S isomer) added simultaneously, range of 10^−11 M to 10^−6 M): suppressed
osteoclast formation (in words) ([1]; Compound 11 (23S isomer) alone at 10^−6 M): did not caused any osteoclast formation
osteoclast formation (in words) ([1]; Compound 11 (23S isomer) by itself): rather inhibited the osteoclast formation
osteoclast formation (average number of cells ± S.D.) ([1]; test substance alone at 10^−6 M, 3 weeks culture): 1 ± 1 cells
osteoclast formation (average number of cells ± S.D.) [1, 3]: 8 ± 2 cells
osteoclast formation (average number of cells ± S.D.) [1, 4]: 9 ± 3 cells
osteoclast formation (average number of cells ± S.D.) [1, 5]: 16 ± 2 cells
osteoclast formation (average number of cells ± S.D.) [1, 6]: 20 ± 4 cells
osteoclast formation (average number of cells ± S.D.) [1, 7]: 29 ± 5 cells

C=C1/C(=C\C=C2/CCC[C@]3(C)[C@@H]([C@H](C)CCCC(C)(C)O)CC[C@@H]23)C[C@@H](O)C[C@@H]1O [1α,25-dihydroxyvitamin D3, reference compound]
expression of 25-hydroxyvitamin D3-24-hydroxylase gene (reporter, in words) ([2]; TAFII-17 gene-transfected NIH3T3 cells, 10^−8 M 1α,25-(OH)2D3, 48 h): extremely accelerated
expression of 25-hydroxyvitamin D3-24-hydroxylase gene (reporter, in words) ([2]; TAFII-17 gene-transfected NIH3T3 cells, 10^−9 M 1α,25-(OH)2D3, 48 h): accelerated
expression of 25-hydroxyvitamin D3-24-hydroxylase gene (reporter, in words) ([2]; empty vector-transfected NIH3T3 cells, 10^−8 M 1α,25-(OH)2D3, 48 h): detected
expression of 25-hydroxyvitamin D3-24-hydroxylase gene (reporter, in words) ([2]; empty vector-transfected NIH3T3 cells, 10^−9 M 1α,25-(OH)2D3, 48 h): hardly detected
TAFII-17/β-actin (TAFII-17 gene; 10^−10 M 1α,25-(OH)2D3 singly, 12 hr culture): 100 arbitrary units
concentration exhibiting almost the maximum activity on osteoclast formation ([1]; 1α,25-dihydroxyvitamin D3 alone): ~10^−9 M
osteoclast formation (in words) ([1]; 1α,25-dihydroxyvitamin D3 alone, range of 10^−11 M to 10^−7 M): stimulated osteoclast formation concentration-dependently
osteoclast formation (average number of cells ± S.D.) [1, 3]: 205 ± 6 cells
osteoclast formation (average number of cells ± S.D.) [1, 4]: 206 ± 16 cells
osteoclast formation (average number of cells ± S.D.) [1, 5]: 211 ± 25 cells
osteoclast formation (average number of cells ± S.D.) [1, 6]: 180 ± 15 cells
osteoclast formation (average number of cells ± S.D.) [1, 7]: 134 ± 14 cells
